Experiments:
Assay type in all cases: in vivo
[1] = system: Velvetleaf (Abutilon theophrasti); experiment: Post-emergence herbicidal activity, ABUTH; details: one-leaf stage, 80 g/ha, scored visually after approximately 3 weeks, 100% = plants have died
Protocol: (§1) Seeds of monocotyledonous or dicotyledonous weed plants or crop plants are placed in sandy loam in wood fiber pots, covered with soil and grown in the greenhouse under good growth conditions. 2 to 3 weeks after sowing, the test plants are treated in the one-leaf stage. The compounds according to the invention, which are formulated as wettable powders (WP), are then sprayed onto the green plant parts in the form of an aqueous suspension or emulsion with a water application rate of 600 l/ha (converted) with addition of 0.2% of wetter. After the test plants have been left to stand in the greenhouse for approximately 3 weeks under optimal growth conditions, the activity of the preparation is scored visually in comparison with untreated controls (herbicidal activity in percent (%): 100% activity=plants have died, 0% activity=like control plants). In the table, the individual crops are abbreviated as follows: • ABUTH: Velvetleaf (Abutilon theophrasti) • ALOMY: Slender meadow foxtail (Alopecurus myosuroides) • AMARE: Redroot pigweed (Amaranthus retroflexus) • CHEAL: Lambs quarters (Chenopodium album) • ECHCG: Barnyard grass (Echinochloa crus-galls) • LOLMU: Italian rye grass (Lolium multiflorum) • MATIN: Scentless camomile (Matricaria inodora) • PHBPU: Purple morning glory (Pharbitis/Ipomoea purpurea) • POLCO: Black bindweed (Polygonum convolvulus) • SETVI: Green bristlegrass (Setaria viridis) • STEME: Chickweed (Stellaria media) • VIOTR: Wild pansy (Viola tricolor) • XANST: Rough cocklebear (Xanthium strumarium)

[2] = system: White mustard (Sinapis alba); experiment: Pre-emergence herbicidal activity, SINAL; details: 80 g/ha, scored visually after approximately 3 weeks, 100% = plants have died
From the text: (§2) Seeds of monocotyledonous or dicotyledonous weed plants or crop plants are placed in sandy loam in wood fiber pots and covered with soil. The compounds according to the invention, which are formulated as wettable powders (WP) are then applied to the surface of the soil cover in the form of an aqueous suspension or emulsion with a water application rate of 600 I/ha (converted), with addition of 0.2% wetter. After the treatment, the pots are placed in the greenhouse and maintained under good growth conditions for the test plants. After approximately 3 weeks, the activity of the preparation is scored visually in comparison with untreated controls (herbicidal activity in percent (%): 100% activity=plants have died, 0% activity=like control plants). In the table, the individual crops are abbreviated as follows: • ALOMY: Slender meadow foxtail (Alopecurus myosuroides) • AMARE: Redroot pigweed (Amaranthus retroflexus) • CHEAL: Lambs quarters (Chenopodium album) • DIGSA: Hairy crab grass (Digitaria sanguinalis) • ECHCG: Barnyard grass (Echinochloa crus-galls) • LOLMU: Italian rye grass (Lolium multiflorum) • MATIN: Scentless camomile (Matricaria inodora) • PHBPU: Purple morning glory (Pharbitis/Ipomoea purpurea) • SETVI: Green bristlegrass (Setaria viridis) • SINAL: White mustard (Sinapis alba) • STEME: Chickweed (Stellaria media) • VIOTR: Wild pansy (Viola tricolor)

[3] = system: Barnyard grass (Echinochloa crus-galls); experiment: Pre-emergence herbicidal activity, ECHCG; details: 80 g/ha, scored visually after approximately 3 weeks, 100% = plants have died
From the text: as §2

[4] = system: Black bindweed (Polygonum convolvulus); experiment: Post-emergence herbicidal activity, POLCO; details: one-leaf stage, 80 g/ha, scored visually after approximately 3 weeks, 100% = plants have died
Protocol: as §1

[5] = system: Purple morning glory (Pharbitis/Ipomoea purpurea); experiment: Post-emergence herbicidal activity, PHBPU; details: one-leaf stage, 80 g/ha, scored visually after approximately 3 weeks, 100% = plants have died
Protocol: as §1

[6] = system: Wild pansy (Viola tricolor); experiment: Post-emergence herbicidal activity, VIOTR; details: one-leaf stage, 80 g/ha, scored visually after approximately 3 weeks, 100% = plants have died
Protocol: as §1

[7] = system: Wild pansy (Viola tricolor); experiment: Pre-emergence herbicidal activity, VIOTR; details: 80 g/ha, scored visually after approximately 3 weeks, 100% = plants have died
From the text: as §2

[8] = system: Scentless camomile (Matricaria inodora); experiment: Pre-emergence herbicidal activity, MATIN; details: 80 g/ha, scored visually after approximately 3 weeks, 100% = plants have died
From the text: as §2

[9] = system: Purple morning glory (Pharbitis/Ipomoea purpurea); experiment: Pre-emergence herbicidal activity, PHBPU; details: 80 g/ha, scored visually after approximately 3 weeks, 100% = plants have died
From the text: as §2

[10] = system: Slender meadow foxtail (Alopecurus myosuroides); experiment: Post-emergence herbicidal activity, ALOMY; details: one-leaf stage, 80 g/ha, scored visually after approximately 3 weeks, 100% = plants have died
Protocol: as §1

[11] = system: Italian rye grass (Lolium multiflorum); experiment: Pre-emergence herbicidal activity, LOLMU; details: 80 g/ha, scored visually after approximately 3 weeks, 100% = plants have died
From the text: as §2

[12] = system: Redroot pigweed (Amaranthus retroflexus); experiment: Post-emergence herbicidal activity, AMARE; details: one-leaf stage, 80 g/ha, scored visually after approximately 3 weeks, 100% = plants have died
Protocol: as §1

[13] = system: Lambs quarters (Chenopodium album); experiment: Post-emergence herbicidal activity, CHEAL; details: one-leaf stage, 80 g/ha, scored visually after approximately 3 weeks, 100% = plants have died
Protocol: as §1

[14] = system: Lambs quarters (Chenopodium album); experiment: Pre-emergence herbicidal activity, CHEAL; details: 80 g/ha, scored visually after approximately 3 weeks, 100% = plants have died
From the text: as §2

[15] = system: Italian rye grass (Lolium multiflorum); experiment: Post-emergence herbicidal activity, LOLMU; details: one-leaf stage, 80 g/ha, scored visually after approximately 3 weeks, 100% = plants have died
Protocol: as §1

[16] = system: Chickweed (Stellaria media); experiment: Pre-emergence herbicidal activity, STEME; details: 80 g/ha, scored visually after approximately 3 weeks, 100% = plants have died
From the text: as §2

[17] = system: Scentless camomile (Matricaria inodora); experiment: Post-emergence herbicidal activity, MATIN; details: one-leaf stage, 80 g/ha, scored visually after approximately 3 weeks, 100% = plants have died
Protocol: as §1

[18] = system: Barnyard grass (Echinochloa crus-galls); experiment: Post-emergence herbicidal activity, ECHCG; details: one-leaf stage, 80 g/ha, scored visually after approximately 3 weeks, 100% = plants have died
Protocol: as §1

[19] = system: Hairy crab grass (Digitaria sanguinalis); experiment: Pre-emergence herbicidal activity, DIGSA; details: 80 g/ha, scored visually after approximately 3 weeks, 100% = plants have died
From the text: as §2

[20] = system: Redroot pigweed (Amaranthus retroflexus); experiment: Pre-emergence herbicidal activity, AMARE; details: 80 g/ha, scored visually after approximately 3 weeks, 100% = plants have died
From the text: as §2

[21] = system: Green bristlegrass (Setaria viridis); experiment: Post-emergence herbicidal activity, SETVI; details: one-leaf stage, 80 g/ha, scored visually after approximately 3 weeks, 100% = plants have died
Protocol: as §1

[22] = system: Rough cocklebear (Xanthium strumarium); experiment: Post-emergence herbicidal activity, XANST; details: one-leaf stage, 80 g/ha, scored visually after approximately 3 weeks, 100% = plants have died
Protocol: as §1

[23] = system: Slender meadow foxtail (Alopecurus myosuroides); experiment: Pre-emergence herbicidal activity, ALOMY; details: 80 g/ha, scored visually after approximately 3 weeks, 100% = plants have died
From the text: as §2

[24] = system: Green bristlegrass (Setaria viridis); experiment: Pre-emergence herbicidal activity, SETVI; details: 80 g/ha, scored visually after approximately 3 weeks, 100% = plants have died
From the text: as §2

[25] = system: Chickweed (Stellaria media); experiment: Post-emergence herbicidal activity, STEME; details: one-leaf stage, 80 g/ha, scored visually after approximately 3 weeks, 100% = plants have died
Protocol: as §1

Row | Structure (SMILES) | herbicidal activity in percent, ABUTH [1] [%] | herbicidal activity in percent, ECHCG [3] [%] | herbicidal activity in percent, POLCO [4] [%] | herbicidal activity in percent, PHBPU [5] [%] | herbicidal activity in percent, VIOTR [6] [%] | herbicidal activity in percent, VIOTR [7] [%] | herbicidal activity in percent, ALOMY [10] [%] | herbicidal activity in percent, LOLMU [11] [%] | herbicidal activity in percent, AMARE [12] [%] | herbicidal activity in percent, CHEAL [13] [%] | herbicidal activity in percent, LOLMU [15] [%] | herbicidal activity in percent, STEME [16] [%] | herbicidal activity in percent, MATIN [17] [%] | herbicidal activity in percent, ECHCG [18] [%] | herbicidal activity in percent, AMARE [20] [%] | herbicidal activity in percent, SETVI [21] [%] | herbicidal activity in percent, XANST [22] [%] | herbicidal activity in percent, ALOMY [23] [%] | herbicidal activity in percent, SETVI [24] [%] | herbicidal activity in percent, STEME [25] [%] | further results
1 | COc1cc(OC)nc(NC(=O)NS(=O)(=O)c2cnccc2C2=NOCCO2)n1 [Ia-2, 4-(5,6-Dihydro-1,4,2-dioxazin-3-yl)-N-[(4,6-dimethoxypyrimidin-2-yl)carbamoyl]pyridine-3-sulfonamide] | 90 | 90 | 90 | 90 | 90 | 90 | 90 | 90 | 100 | 80 | 95 | 90 | 90 | 90 | 90 | 95 | 100 | 90 | 100 | 95 | herbicidal activity in percent, SINAL [2]: 100%; herbicidal activity in percent, MATIN [8]: 90%; herbicidal activity in percent, PHBPU [9]: 80%; herbicidal activity in percent, CHEAL [14]: 100%; herbicidal activity in percent, DIGSA [19]: 80%
2 | Cc1cc(C)nc(NC(=O)NS(=O)(=O)c2cnccc2C2=NOCCO2)n1 [Ia-3] | 90 | 80 | 80 | 100 | 80 | 80 | 90 | 85 | 95 | 80 | 85 | 80 | 100 | 95 | 85 | 80 | 90 | 90 | 90 | 85 | herbicidal activity in percent, SINAL [2]: 90%; herbicidal activity in percent, MATIN [8]: 90%; herbicidal activity in percent, PHBPU [9]: 90%; herbicidal activity in percent, CHEAL [14]: 90%
3 | CN(C)c1nc(NC(=O)NS(=O)(=O)c2cnccc2C2=NOCCO2)nc(OCC(F)(F)F)n1 [Ia-8] |  |  |  |  |  |  |  |  | 80 |  | 80 |  |  | 80 |  |  |  |  |  | 80 | 
4 | COc1cc(C)nc(NC(=O)NS(=O)(=O)c2cnccc2C2=NOCCO2)n1 [Ia-9] | 90 | 80 | 90 | 100 | 90 | 90 | 90 | 90 | 100 | 90 | 90 | 90 | 100 | 90 | 90 | 80 | 100 | 90 | 90 | 90 | herbicidal activity in percent, MATIN [8]: 90%; herbicidal activity in percent, PHBPU [9]: 90%; herbicidal activity in percent, CHEAL [14]: 90%; herbicidal activity in percent, DIGSA [19]: 90%
5 | COc1cc(OC)nc(NC(=O)NS(=O)(=O)c2cccnc2C2=NOCCO2)n1 [Ic-1] | 80 | 90 | 90 | 90 | 90 | 80 | 80 | 85 | 95 | 80 | 85 | 90 | 90 | 90 | 90 | 85 | 90 | 90 | 85 | 90 | herbicidal activity in percent, SINAL [2]: 90%; herbicidal activity in percent, DIGSA [19]: 80%
